Data reported in PubChem BioAssay AID1963854 (Molecular Pharmacology Branch, DTP, NCI, 2024).

System: 186277-243-T-J2-PDC complex spheroid viability
Test: Anticancer human tumor 186277-243-T-J2-PDC patient-derived colon adenocarcinoma cell line growth inhibition [POLQ]
Settings: for IC50: curve of first compound; for viability, T/C: stronger effect = lower value
In short: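 Three-cell-type spheroids modelling solid tumor plus stroma served as the readout system; POL inhibitors were tested individually and in combination, concentration ranges set by clinical Cmax where known.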

[1] = second compound 0.0316 µM, first compound 0.0316 µM
[2] = second compound 0.0316 µM, first compound 0.1 µM
[3] = second compound 0.0316 µM, first compound 0.316 µM
[4] = second compound 0.0316 µM, first compound 1 µM
[5] = second compound 0.0316 µM, first compound 3.16 µM
[6] = second compound 0.0316 µM, first compound 10 µM
[7] = second compound 0.1 µM, first compound 0.0316 µM
[8] = second compound 0.1 µM, first compound 0.1 µM
[9] = second compound 0.1 µM, first compound 0.316 µM
[10] = second compound 0.1 µM, first compound 1 µM
[11] = second compound 0.1 µM, first compound 3.16 µM
[12] = second compound 0.1 µM, first compound 10 µM
[13] = second compound 0.316 µM, first compound 0.0316 µM
[14] = second compound 0.316 µM, first compound 0.1 µM
[15] = second compound 0.316 µM, first compound 0.316 µM
[16] = second compound 0.316 µM, first compound 1 µM
[17] = second compound 0.316 µM, first compound 3.16 µM
[18] = second compound 0.316 µM, first compound 10 µM
[19] = second compound 1 µM, first compound 0.0316 µM
[20] = second compound 1 µM, first compound 0.1 µM
[21] = second compound 1 µM, first compound 0.316 µM
[22] = second compound 1 µM, first compound 1 µM
[23] = second compound 1 µM, first compound 3.16 µM
[24] = second compound 1 µM, first compound 10 µM
[25] = second compound 3.16 µM, first compound 0.0316 µM
[26] = second compound 3.16 µM, first compound 0.1 µM
[27] = second compound 3.16 µM, first compound 0.316 µM
[28] = second compound 3.16 µM, first compound 1 µM
[29] = second compound 3.16 µM, first compound 3.16 µM
[30] = second compound 3.16 µM, first compound 10 µM
[31] = second compound 10 µM, first compound 0.0316 µM
[32] = second compound 10 µM, first compound 0.1 µM
[33] = second compound 10 µM, first compound 0.316 µM
[34] = second compound 10 µM, first compound 1 µM
[35] = second compound 10 µM, first compound 3.16 µM
[36] = second compound 10 µM, first compound 10 µM
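Also: spheroids exposed to compounds for seven days.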
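For viability, T/C in this document: 100% = DMSO vehicle control viability.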

## C=CC(=O)N1CCN(c2nc(=O)n(-c3c(C)ccnc3C(C)C)c3nc(-c4c(O)cccc4F)c(F)cc23)C(C)C1 (stereo not drawn) + COC1C(OC(N)=O)C(O)C(Oc2ccc3c(O)c(NC(=O)c4ccc(O)c(CC=C(C)C)c4)c(=O)oc3c2C)OC1(C)C
Second compound 0.0316 µM
  IC50: > 10 µM
Second compound 0.1 µM
  IC50: > 10 µM
Second compound 0.316 µM
  IC50: > 10 µM
Second compound 1 µM
  IC50: > 10 µM
Second compound 3.16 µM
  IC50: > 10 µM
Second compound 10 µM
  IC50: > 10 µM
[1]
  viability, T/C: 94%
[2]
  viability, T/C: 88.7%
[3]
  viability, T/C: 111%
[4]
  viability, T/C: 88.2%
[5]
  viability, T/C: 102%
[6]
  viability, T/C: 85.9%
[7]
  viability, T/C: 90.2%
[8]
  viability, T/C: 91.8%
[9]
  viability, T/C: 98.3%
[10]
  viability, T/C: 90.2%
[11]
  viability, T/C: 87%
[12]
  viability, T/C: 97%
[13]
  viability, T/C: 98%
[14]
  viability, T/C: 102%
[15]
  viability, T/C: 91.5%
[16]
  viability, T/C: 104%
[17]
  viability, T/C: 110%
[18]
  viability, T/C: 98.1%
[19]
  viability, T/C: 97.3%
[20]
  viability, T/C: 93.9%
[21]
  viability, T/C: 101%
[22]
  viability, T/C: 90.7%
[23]
  viability, T/C: 96.6%
[24]
  viability, T/C: 97.7%
[25]
  viability, T/C: 93.5%
[26]
  viability, T/C: 94.5%
[27]
  viability, T/C: 99.3%
[28]
  viability, T/C: 101%
[29]
  viability, T/C: 87.5%
[30]
  viability, T/C: 87.3%
[31]
  viability, T/C: 92.9%
[32]
  viability, T/C: 104%
[33]
  viability, T/C: 92.3%
[34]
  viability, T/C: 84.5%
[35]
  viability, T/C: 116%
[36]
  viability, T/C: 83.3%

## COc1cc(C2c3cc4c(cc3C(OC3OC5COC(C)OC5C(O)C3O)C3COC(=O)C23)OCO4)cc(OC)c1O (stereo not drawn) + Nc1ccc(C#CCN(C(=O)Cc2ncc(C(F)(F)F)cc2C(F)(F)F)c2ccc(F)cc2)nn1
Second compound 0.0316 µM
  IC50: 4.57 µM
Second compound 0.1 µM
  IC50: 3.96 µM
Second compound 0.316 µM
  IC50: 3.19 µM
Second compound 1 µM
  IC50: 3.74 µM
Second compound 3.16 µM
  IC50: 3.6 µM
Second compound 10 µM
  IC50: 2.63 µM
[1]
  viability, T/C: 96.2%
[2]
  viability, T/C: 104%
[3]
  viability, T/C: 128%
[4]
  viability, T/C: 93.6%
[5]
  viability, T/C: 60.5%
[6]
  viability, T/C: 29.7%
[7]
  viability, T/C: 93.7%
[8]
  viability, T/C: 127%
[9]
  viability, T/C: 137%
[10]
  viability, T/C: 86.9%
[11]
  viability, T/C: 59.7%
[12]
  viability, T/C: 28.1%
[13]
  viability, T/C: 97.8%
[14]
  viability, T/C: 106%
[15]
  viability, T/C: 135%
[16]
  viability, T/C: 80%
[17]
  viability, T/C: 55.9%
[18]
  viability, T/C: 28.1%
[19]
  viability, T/C: 92.2%
[20]
  viability, T/C: 115%
[21]
  viability, T/C: 123%
[22]
  viability, T/C: 79%
[23]
  viability, T/C: 58.3%
[24]
  viability, T/C: 28.4%
[25]
  viability, T/C: 108%
[26]
  viability, T/C: 110%
[27]
  viability, T/C: 125%
[28]
  viability, T/C: 74.6%
[29]
  viability, T/C: 59.8%
[30]
  viability, T/C: 24.4%
[31]
  viability, T/C: 109%
[32]
  viability, T/C: 116%
[33]
  viability, T/C: 102%
[34]
  viability, T/C: 65.9%
[35]
  viability, T/C: 52.6%
[36]
  viability, T/C: 24.3%

## O=C(c1cc(Cc2n[nH]c(=O)c3ccccc23)ccc1F)N1CCN(C(=O)C2CC2)CC1 + Nc1ccc(C#CCN(C(=O)Cc2ncc(C(F)(F)F)cc2C(F)(F)F)c2ccc(F)cc2)nn1
Second compound 0.0316 µM
  IC50: > 10 µM
Second compound 0.1 µM
  IC50: > 10 µM
Second compound 0.316 µM
  IC50: > 10 µM
Second compound 1 µM
  IC50: > 10 µM
Second compound 3.16 µM
  IC50: > 10 µM
Second compound 10 µM
  IC50: > 10 µM
[1]
  viability, T/C: 105%
[2]
  viability, T/C: 89.9%
[3]
  viability, T/C: 106%
[4]
  viability, T/C: 92.3%
[5]
  viability, T/C: 107%
[6]
  viability, T/C: 121%
[7]
  viability, T/C: 97.5%
[8]
  viability, T/C: 91.6%
[9]
  viability, T/C: 111%
[10]
  viability, T/C: 101%
[11]
  viability, T/C: 104%
[12]
  viability, T/C: 117%
[13]
  viability, T/C: 100%
[14]
  viability, T/C: 96.7%
[15]
  viability, T/C: 98.2%
[16]
  viability, T/C: 93.7%
[17]
  viability, T/C: 102%
[18]
  viability, T/C: 120%
[19]
  viability, T/C: 96.1%
[20]
  viability, T/C: 101%
[21]
  viability, T/C: 98.7%
[22]
  viability, T/C: 105%
[23]
  viability, T/C: 115%
[24]
  viability, T/C: 108%
[25]
  viability, T/C: 95%
[26]
  viability, T/C: 107%
[27]
  viability, T/C: 110%
[28]
  viability, T/C: 95.2%
[29]
  viability, T/C: 110%
[30]
  viability, T/C: 105%
[31]
  viability, T/C: 106%
[32]
  viability, T/C: 110%
[33]
  viability, T/C: 99.5%
[34]
  viability, T/C: 102%
[35]
  viability, T/C: 117%
[36]
  viability, T/C: 95.1%

## C=CCn1c(=O)c2cnc(Nc3ccc(N4CCN(C)CC4)cc3)nc2n1-c1cccc(C(C)(C)O)n1 + Cc1cccc(N(C)C(=O)C2C(O)CCN2c2nc(C)cc(C(F)(F)F)c2C#N)c1
Second compound 0.0316 µM
  IC50: 0.213 µM
Second compound 0.1 µM
  IC50: 0.23 µM
Second compound 0.316 µM
  IC50: 0.22 µM
Second compound 1 µM
  IC50: 0.226 µM
Second compound 3.16 µM
  IC50: 0.223 µM
Second compound 10 µM
  IC50: 0.224 µM
Second compound 0.0316 µM, first compound 0.00316 µM
  viability, T/C: 107%
Second compound 0.0316 µM, first compound 0.01 µM
  viability, T/C: 102%
[1]
  viability, T/C: 88.4%
[2]
  viability, T/C: 96.3%
[3]
  viability, T/C: 25.9%
[4]
  viability, T/C: 12.5%
Second compound 0.1 µM, first compound 0.00316 µM
  viability, T/C: 99.1%
Second compound 0.1 µM, first compound 0.01 µM
  viability, T/C: 112%
[7]
  viability, T/C: 95.3%
[8]
  viability, T/C: 106%
[9]
  viability, T/C: 29.6%
[10]
  viability, T/C: 13.7%
Second compound 0.316 µM, first compound 0.00316 µM
  viability, T/C: 88.1%
Second compound 0.316 µM, first compound 0.01 µM
  viability, T/C: 99.4%
[13]
  viability, T/C: 103%
[14]
  viability, T/C: 111%
[15]
  viability, T/C: 26.6%
[16]
  viability, T/C: 13.8%
Second compound 1 µM, first compound 0.00316 µM
  viability, T/C: 102%
Second compound 1 µM, first compound 0.01 µM
  viability, T/C: 119%
[19]
  viability, T/C: 104%
[20]
  viability, T/C: 110%
[21]
  viability, T/C: 25.7%
[22]
  viability, T/C: 12.5%
Second compound 3.16 µM, first compound 0.00316 µM
  viability, T/C: 119%
Second compound 3.16 µM, first compound 0.01 µM
  viability, T/C: 95.7%
[25]
  viability, T/C: 102%
[26]
  viability, T/C: 131%
[27]
  viability, T/C: 22.8%
[28]
  viability, T/C: 16.8%
Second compound 10 µM, first compound 0.00316 µM
  viability, T/C: 116%
Second compound 10 µM, first compound 0.01 µM
  viability, T/C: 102%
[31]
  viability, T/C: 106%
[32]
  viability, T/C: 106%
[33]
  viability, T/C: 24.7%
[34]
  viability, T/C: 12.8%
